The nature of test [1]: Clinical comparison of efficacy of DIM + βCD complex and crystalline DIM taken orally. In kind it is in vivo. As to conditions: equal dosages, all studied groups of patients. From the text:
Clinical studies have compared the efficacy of the water-soluble DIM + βCD complex and crystalline 3,3'-diindolylmethane in equal dosages when taken orally. […]

Test [2] relates to pathological neoangiogenesis. The following applies: subcutaneously, 5 mg / kg, daily; cited from earlier work.

On to 3,3'-diindolylmethane [Crystal DIM], for which, in test [1], the clinical response entry was “absence of such”.
As to `c1ccc2c(Cc3c[nH]c4ccccc34)c[nH]c2c1` [DIM, 3,3'-diindolylmethane], in test [2], the “inhibition of pathological neoangiogenesis” value was 74%.

Source of the values: patent EP4215193A1, “METHOD FOR THE CONSERVATIVE TREATMENT OF ENDOMETRIAL POLYPS” (Kiselev, Vsevolod Ivanovich, priority 2020, dated 2022).
